Measured values: the supplement of paper PMC10307832

Experiments:
Experiment in all cases: relative viability (nuclei count vs DMSO), 5 days (fraction); higher = more cells survive
NCI-H838 = system: NCI-H838
How it was run: (§1)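 Relative viability divides the nuclei count in treated wells by that in vehicle wells. Lung cancer cell lines were seeded in 1536-well plates, dosed by pin tool the next day, and fixed and stained after 5 days in one step with final 0.05% Triton X-100, 1% formaldehyde and 1 ug/ml Hoechst. Dosing was a single drug or a fixed anchor-drug dose plus five library-drug doses (not always all listed) in √10 steps, and values are medians of duplicate plates imaged at 4×.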

PC-14 = system: PC-14
How it was run: as §1

HCC-15 = system: HCC-15
How it was run: as §1

NCI-H650 = system: NCI-H650
How it was run: as §1

NCI-H2126 = system: NCI-H2126
How it was run: as §1

NCI-H1993 = system: NCI-H1993
How it was run: as §1

NCI-H358 = system: NCI-H358
How it was run: as §1

NCI-H1915 = system: NCI-H1915
How it was run: as §1

LU99A = system: LU99A
How it was run: as §1

HARA = system: HARA
How it was run: as §1

NCI-H2347 = system: NCI-H2347
How it was run: as §1

COR-L23 = system: COR-L23
How it was run: as §1

NCI-H1355 = system: NCI-H1355
How it was run: as §1

LC-2-ad = system: LC-2-ad
How it was run: as §1

HOP-62 = system: HOP-62
How it was run: as §1

NCI-H2085 = system: NCI-H2085
How it was run: as §1

UMC-11 = system: UMC-11
How it was run: as §1

SW 1573 = system: SW 1573
How it was run: as §1

HCC-44 = system: HCC-44
How it was run: as §1

NCI-H2023 = system: NCI-H2023
How it was run: as §1

NCI-H1651 = system: NCI-H1651
How it was run: as §1

ABC-1 = system: ABC-1
How it was run: as §1

EPLC-272H = system: EPLC-272H
How it was run: as §1

CCN(CC)CCCCNc1ncc2cc(-c3cc(OC)cc(OC)c3)c(NC(=O)NC(C)(C)C)nc2n1 + CCNC(=O)c1noc(-c2cc(C(C)C)c(O)cc2O)c1-c1ccc(CN2CCOCC2)cc1 [Luminespib] (partner 0.01 µM)
relative viability (NCI-H838; first compound 0.01 µM): 0.344
relative viability (NCI-H838; first compound 0.03162 µM): 0.244
relative viability (NCI-H838; first compound 0.1 µM): 0.304
relative viability (NCI-H838; first compound 0.3162 µM): 0.304
relative viability (NCI-H838; first compound 1 µM): 0.3
relative viability (PC-14; first compound 0.01 µM): 0.138
relative viability (PC-14; first compound 0.03162 µM): 0.126
relative viability (PC-14; first compound 0.1 µM): 0.176
relative viability (PC-14; first compound 0.3162 µM): 0.141
relative viability (PC-14; first compound 1 µM): 0.138
relative viability (HCC-15; first compound 0.01 µM): 0.251
relative viability (HCC-15; first compound 0.03162 µM): 0.257
relative viability (HCC-15; first compound 0.1 µM): 0.348
relative viability (HCC-15; first compound 0.3162 µM): 0.422
relative viability (HCC-15; first compound 1 µM): 0.266
relative viability (NCI-H650; first compound 0.01 µM): 0.74
relative viability (NCI-H650; first compound 0.03162 µM): 0.729
relative viability (NCI-H650; first compound 0.1 µM): 0.736
relative viability (NCI-H650; first compound 0.3162 µM): 0.864
relative viability (NCI-H650; first compound 1 µM): 0.848
relative viability (NCI-H2126; first compound 0.01 µM): 0.985
relative viability (NCI-H2126; first compound 0.03162 µM): 0.876
relative viability (NCI-H2126; first compound 0.1 µM): 0.953
relative viability (NCI-H2126; first compound 0.3162 µM): 0.92
relative viability (NCI-H2126; first compound 1 µM): 0.898
relative viability (NCI-H1993; first compound 0.01 µM): 0.401
relative viability (NCI-H1993; first compound 0.03162 µM): 0.715
relative viability (NCI-H1993; first compound 0.1 µM): 0.771
relative viability (NCI-H1993; first compound 0.3162 µM): 0.97
relative viability (NCI-H1993; first compound 1 µM): 0.666
relative viability (NCI-H358; first compound 0.01 µM): 0.429
relative viability (NCI-H358; first compound 0.03162 µM): 0.193
relative viability (NCI-H358; first compound 0.1 µM): 0.348
relative viability (NCI-H358; first compound 0.3162 µM): 0.503
relative viability (NCI-H358; first compound 1 µM): 0.347
relative viability (NCI-H1915; first compound 0.01 µM): 0.885
relative viability (NCI-H1915; first compound 0.03162 µM): 0.863
relative viability (NCI-H1915; first compound 0.1 µM): 1.02
relative viability (NCI-H1915; first compound 0.3162 µM): 0.932
relative viability (NCI-H1915; first compound 1 µM): 0.711
relative viability (LU99A; first compound 0.01 µM): 0.301
relative viability (LU99A; first compound 0.03162 µM): 0.251
relative viability (LU99A; first compound 0.1 µM): 0.197
relative viability (LU99A; first compound 0.3162 µM): 0.25
relative viability (LU99A; first compound 1 µM): 0.27
relative viability (HARA; first compound 0.01 µM): 1.11
relative viability (HARA; first compound 0.03162 µM): 0.896
relative viability (HARA; first compound 0.1 µM): 0.948
relative viability (HARA; first compound 0.3162 µM): 0.904
relative viability (HARA; first compound 1 µM): 0.439
relative viability (NCI-H2347; first compound 0.01 µM): 0.675
relative viability (NCI-H2347; first compound 0.03162 µM): 0.341
relative viability (NCI-H2347; first compound 0.1 µM): 0.447
relative viability (NCI-H2347; first compound 0.3162 µM): 0.372
relative viability (NCI-H2347; first compound 1 µM): 0.526
relative viability (COR-L23; first compound 0.01 µM): 0.799
relative viability (COR-L23; first compound 0.03162 µM): 0.707
relative viability (COR-L23; first compound 0.1 µM): 0.955
relative viability (COR-L23; first compound 0.3162 µM): 1.03
relative viability (COR-L23; first compound 1 µM): 0.639
relative viability (NCI-H1355; first compound 0.01 µM): 0.795
relative viability (NCI-H1355; first compound 0.03162 µM): 0.824
relative viability (NCI-H1355; first compound 0.1 µM): 0.704
relative viability (NCI-H1355; first compound 0.3162 µM): 0.738
relative viability (NCI-H1355; first compound 1 µM): 0.649
relative viability (LC-2-ad; first compound 0.01 µM): 0.971
relative viability (LC-2-ad; first compound 0.03162 µM): 1.12
relative viability (LC-2-ad; first compound 0.1 µM): 1.21
relative viability (LC-2-ad; first compound 0.3162 µM): 1.04
relative viability (LC-2-ad; first compound 1 µM): 1.11
relative viability (HOP-62; first compound 0.01 µM): 1.12
relative viability (HOP-62; first compound 0.03162 µM): 0.986
relative viability (HOP-62; first compound 0.1 µM): 1.02
relative viability (HOP-62; first compound 0.3162 µM): 0.961
relative viability (HOP-62; first compound 1 µM): 0.888
relative viability (NCI-H2085; first compound 0.01 µM): 0.419
relative viability (NCI-H2085; first compound 0.03162 µM): 0.424
relative viability (NCI-H2085; first compound 0.1 µM): 0.402
relative viability (NCI-H2085; first compound 0.3162 µM): 0.405
relative viability (NCI-H2085; first compound 1 µM): 0.458
relative viability (UMC-11; first compound 0.01 µM): 1.05
relative viability (UMC-11; first compound 0.03162 µM): 1.08
relative viability (UMC-11; first compound 0.1 µM): 1.25
relative viability (UMC-11; first compound 0.3162 µM): 1.04
relative viability (UMC-11; first compound 1 µM): 0.94
relative viability (SW 1573; first compound 0.01 µM): 0.238
relative viability (SW 1573; first compound 0.03162 µM): 0.297
relative viability (SW 1573; first compound 0.1 µM): 0.239
relative viability (SW 1573; first compound 0.3162 µM): 0.177
relative viability (SW 1573; first compound 1 µM): 0.172
relative viability (HCC-44; first compound 0.01 µM): 1.07
relative viability (HCC-44; first compound 0.03162 µM): 1.06
relative viability (HCC-44; first compound 0.1 µM): 0.801
relative viability (HCC-44; first compound 0.3162 µM): 1.06
relative viability (HCC-44; first compound 1 µM): 0.866
relative viability (NCI-H2023; first compound 0.01 µM): 0.663
relative viability (NCI-H2023; first compound 0.03162 µM): 1.05
relative viability (NCI-H2023; first compound 0.1 µM): 0.745
relative viability (NCI-H2023; first compound 0.3162 µM): 0.833
relative viability (NCI-H2023; first compound 1 µM): 0.545
relative viability (NCI-H1651; first compound 0.01 µM): 0.886
relative viability (NCI-H1651; first compound 0.03162 µM): 0.875
relative viability (NCI-H1651; first compound 0.1 µM): 0.779
relative viability (NCI-H1651; first compound 0.3162 µM): 1.33
relative viability (NCI-H1651; first compound 1 µM): 0.781
relative viability (ABC-1; first compound 0.01 µM): 0.731
relative viability (ABC-1; first compound 0.03162 µM): 0.405
relative viability (ABC-1; first compound 0.1 µM): 0.832
relative viability (ABC-1; first compound 0.3162 µM): 0.416
relative viability (ABC-1; first compound 1 µM): 0.693
relative viability (EPLC-272H; first compound 0.01 µM): 0.26
relative viability (EPLC-272H; first compound 0.03162 µM): 0.266
relative viability (EPLC-272H; first compound 0.1 µM): 0.204
relative viability (EPLC-272H; first compound 0.3162 µM): 0.219
relative viability (EPLC-272H; first compound 1 µM): 0.329
